According to ChEMBL document CHEMBL1122367, “Synthesis and antihypertensive activity of a series of spiro[1,3,4,6,7,11b-hexahydro-2H-benzo[a]quinolizine-2,5'-oxazolidin-2'-one]s” (1983):

Columns and labels:
Rattus norvegicus [1] = test: Percentage fall in systolic blood pressure in spontaneously hypertensive rats 2 hr after 50 mg/kg p.o. administration; Not significant.; format: functional, organism-based; parameters: dose 50 mg/kg; settings: Artery, at 50 mg/kg
Rattus norvegicus [2] = test: Percentage fall in systolic blood pressure in spontaneously hypertensive rats 3h after 50 mg/kg p.o. administration; Not significant.; format: functional, organism-based; parameters: dose 50 mg/kg; settings: Artery, at 50 mg/kg
Rattus norvegicus [3] = test: Antihypertensive activity as percentage fall in systolic blood pressure in spontaneously hypertensive rats 4 hr after 50 mg/kg po administration; format: functional, Artery
Rattus norvegicus [4] = test: Antihypertensive activity as percentage fall in systolic blood pressure in spontaneously hypertensive rats 1 hr after 50 mg/kg po administration; format: functional, Artery
Rattus norvegicus [5] = test: Percentage fall in systolic blood pressure in spontaneously hypertensive rats 2 hr after 50 mg/kg p.o. administration.; format: functional, Artery; settings: route oral
Rattus norvegicus [6] = test: Antihypertensive activity as percentage fall in systolic blood pressure in spontaneously hypertensive rats 3h after 50 mg/kg po administration; format: functional, Artery
Rattus norvegicus [7] = test: Antihypertensive activity as percentage fall in systolic blood pressure in spontaneously hypertensive rats 4 hr after 50 mg/kg po administration; NS means nonsignificant difference between treated and control group; format: functional, organism-based; parameters: dose 50 mg/kg; settings: Artery, at 50 mg/kg
Rattus norvegicus [8] = test: Percentage fall in systolic blood pressure in spontaneously hypertensive rats 1 hr after 50 mg/kg p.o. administration; Not significant.; format: functional, organism-based; parameters: dose 50 mg/kg; settings: Artery, at 50 mg/kg
Rattus norvegicus [9] = test: Antihypertensive activity as percentage fall in systolic blood pressure in spontaneously hypertensive rats 2 hr after 25 mg/kg po administration; format: functional, Artery
Rattus norvegicus [10] = test: Antihypertensive activity as percentage fall in systolic blood pressure in spontaneously hypertensive rats 1 hr after 25 mg/kg po administration; format: functional, Artery
Rattus norvegicus [11] = test: Antihypertensive activity as percentage fall in systolic blood pressure in spontaneously hypertensive rats 3h after 25 mg/kg po administration;NS means nonsignificant difference between treated and control group; format: functional, organism-based; parameters: dose 25 mg/kg; settings: Artery, at 25 mg/kg

Compound | Fall (Rattus norvegicus [1]) | Fall (Rattus norvegicus [2]) | Fall (Rattus norvegicus [4]) [%] | Fall (Rattus norvegicus [5]) [%] | Fall (Rattus norvegicus [6]) [%] | Fall (Rattus norvegicus [7]) | Fall (Rattus norvegicus [8]) | further results
COc1cc2c(cc1OC)[C@@H]1C[C@]3(CCN1CC2)CN(C)C(=O)O3 | Not significant | Not significant | 27 | – | – | – | – | Fall (Rattus norvegicus [3]): 18%
CC[C@H]1CN2CCc3cc(OC)c(OC)cc3[C@@H]2C[C@@]12OC(=O)N[C@H]2CC | – | – | 43 | 48 | 30 | – | – | Fall (Rattus norvegicus [3]): 24%
O=C1NC[C@@]2(CCN3CCc4cc5c(cc4[C@@H]3C2)OCO5)O1 | Not significant | – | 28 | – | 14 | Not significant | – | –
COc1cc2c(cc1OC)[C@@H]1C[C@]3(CCN1CC2)CN(C(C)C)C(=O)O3 | – | Not significant | 29 | 16 | – | Not significant | – | –
CCCN1C[C@]2(CCN3CCc4cc(OC)c(OC)cc4[C@@H]3C2)OC1=O | Not significant | Not significant | – | – | – | Not significant | Not significant | –
COc1cc2c(cc1OC)[C@@H]1C[C@]3(CCN1CC2)CNC(=O)O3 | Not significant | Not significant | – | – | – | Not significant | Not significant | –
CC[C@H]1CN2CCc3cc(OC)c(OC)cc3[C@@H]2C[C@]12CNC(=O)O2 | – | – | – | – | – | – | – | Fall (Rattus norvegicus [5]; 50 mg/kg): 40%; Fall (Rattus norvegicus [9]): 30%; Fall (Rattus norvegicus [3]; 50 mg/kg): 28%; Fall (Rattus norvegicus [10]): 44%; Fall (Rattus norvegicus [4]; 50 mg/kg): 52%; Fall (Rattus norvegicus [6]; 50 mg/kg): 33%
CC[C@@H]1NC(=O)O[C@]12CCN1CCc3cc(OC)c(OC)cc3[C@@H]1C2 | – | – | 45 | 37 | 30 | – | – | Fall (Rattus norvegicus [3]): 27%
CC1Cc2ccccc2[C@@H]2C[C@@]3(CCN12)CNC(=O)O3 (stereo partly specified) | Not significant | Not significant | – | – | – | Not significant | Not significant | –
O=C1NC[C@]2(CCN3CCc4ccccc4[C@@H]3C2)O1 | Not significant | Not significant | – | – | – | Not significant | Not significant | –
CCC[C@H]1CN2CCc3cc(OC)c(OC)cc3[C@@H]2C[C@]12CNC(=O)O2 | – | – | 41 | 27 | 17 | – | – | Fall (Rattus norvegicus [3]): 16%
CCN1C[C@@]2(CCN3CCc4cc(OC)c(OC)cc4[C@@H]3C2)OC1=O | Not significant | Not significant | 31 | – | – | Not significant | – | –
CC[C@H]1CN2CCc3cc(OC)c(OC)cc3[C@@H]2C[C@]12CNC(=O)O2 (racemic) | – | – | – | – | – | – | – | Fall (Rattus norvegicus [5]; 50 mg/kg): 37%; Fall (Rattus norvegicus [3]; 50 mg/kg): 33%; Fall (Rattus norvegicus [4]; 50 mg/kg): 45%; Fall (Rattus norvegicus [6]; 50 mg/kg): 29%
CC[C@H]1CN2CCc3ccccc3[C@@H]2C[C@]12CNC(=O)O2 | Not significant | Not significant | 25 | – | – | Not significant | – | –
C[C@@H]1CN2CC[C@@]3(CNC(=O)O3)C[C@H]2c2ccccc21 | Not significant | Not significant | 16 | – | – | Not significant | – | –
CC[C@H]1NC(=O)O[C@]12CCN1CCc3cc(OC)c(OC)cc3[C@@H]1C2 | – | – | 41 | 38 | 25 | – | – | Fall (Rattus norvegicus [3]): 25%
COc1cc2c(cc1OC)[C@@H]1C[C@@]3(CCN1CC2)CNC(=O)O3 | Not significant | Not significant | 20 | 13 | 12 | Not significant | Not significant | Fall (Rattus norvegicus [9]): 19%; Fall (Rattus norvegicus [3]): 15%; Fall (Rattus norvegicus [11]): Not significant; Fall (Rattus norvegicus [10]): 22%

Compound | Fall (Rattus norvegicus [1]) | Fall (Rattus norvegicus [2]) | Fall (Rattus norvegicus [4]) [%] | Fall (Rattus norvegicus [5]) [%] | Fall (Rattus norvegicus [6]) [%] | Fall (Rattus norvegicus [7]) | Fall (Rattus norvegicus [8]) | further results
CCOc1cc2c(cc1OC)[C@@H]1C[C@]3(CNC(=O)O3)[C@@H](CC)CN1CC2 | – | – | 39 | 32 | 17 | Not significant | – | –
CC[C@H]1CN2CCc3cc4c(cc3[C@@H]2C[C@]12CNC(=O)O2)OCO4 | Not significant | Not significant | – | – | – | Not significant | Not significant | –
CN1C[C@@]2(CCN3CCc4ccccc4[C@@H]3C2)OC1=O | Not significant | Not significant | – | – | – | Not significant | Not significant | –
C[C@H]1CN2CC[C@@]3(CNC(=O)O3)C[C@H]2c2ccccc21 | Not significant | Not significant | – | – | – | Not significant | Not significant | –
COc1cc2c(cc1OC)[C@@H]1C[C@]3(CCN1CC2)CN(C(C)(C)C)C(=O)O3 | – | Not significant | 39 | 20 | – | Not significant | – | –
COc1cc2c(cc1OC)[C@@H]1C[C@]3(CNC(=O)O3)[C@@H](c3ccccc3)CN1CC2 | Not significant | – | – | – | -9 | Not significant | Not significant | –
CCCC[C@H]1CN2CCc3cc(OC)c(OC)cc3[C@@H]2C[C@]12CNC(=O)O2 | – | – | 34 | 21 | 13 | – | – | Fall (Rattus norvegicus [3]): 13%
COc1cc2c(cc1OC)[C@@H]1C[C@@]3(CCN1CC2)CN(C)C(=O)O3 | – | Not significant | 28 | 14 | – | – | – | Fall (Rattus norvegicus [3]): 21%
COc1cc2c(cc1OC)[C@@H]1C[C@]3(CNC(=O)O3)[C@@H](Cc3ccccc3)CN1CC2 | Not significant | Not significant | 27 | – | – | – | – | Fall (Rattus norvegicus [3]): 19%
CCCOc1cc2c(cc1OC)CCN1CC[C@@]3(CNC(=O)O3)C[C@@H]21 | Not significant | Not significant | – | – | – | Not significant | Not significant | –
CCCCN1C[C@]2(CCN3CCc4cc(OC)c(OC)cc4[C@@H]3C2)OC1=O | Not significant | Not significant | – | – | – | Not significant | Not significant | –
CCOc1cc2c(cc1OC)CCN1C[C@H](CC)[C@@]3(CNC(=O)O3)C[C@@H]21 | – | – | 25 | 22 | 17 | Not significant | – | –
CN1C[C@]2(CCN3CCc4ccccc4[C@@H]3C2)OC1=O | – | – | – | -10 | -12 | Not significant | Not significant | –
COc1cc2c(cc1OC(C)C)[C@@H]1C[C@@]3(CCN1CC2)CNC(=O)O3 | Not significant | – | 19 | – | 8 | Not significant | – | –
O=C1NC[C@@]2(CCN3C[C@@H](c4ccccc4)c4ccccc4[C@@H]3C2)O1 | Not significant | Not significant | – | – | – | Not significant | Not significant | –
CCCCOc1cc2c(cc1OC)CCN1CC[C@@]3(CNC(=O)O3)C[C@@H]21 | Not significant | Not significant | 15 | – | – | Not significant | – | –
